From patent publication US20230073946A1, “AFFINITY PEPTIDE […] A[…] PROTECTION OF PROTEINS FROM OXIDATION” (ARIZONA BOARD OF REGENTS ON BEHALF OF THE UNIVERSITY OF …, priority 2020, published 2023)
“Also recorded” adds a separate entry of the source.

Experiments:
[1] = target: T1, Akt (Y350 nitration) (Homo sapiens, UniProt P31749); assay: Sin-1 induced Akt nitration assay in HPAECs; format: cell-based; conditions: 1 μM NP pretreatment 30 min, washed, then SIN-1 1 mM 1 hour
T1 construct: endogenous in cells; host or cells: HPAEC (human pulmonary artery endothelial cells)
T1 sequence (P31749 whole entry): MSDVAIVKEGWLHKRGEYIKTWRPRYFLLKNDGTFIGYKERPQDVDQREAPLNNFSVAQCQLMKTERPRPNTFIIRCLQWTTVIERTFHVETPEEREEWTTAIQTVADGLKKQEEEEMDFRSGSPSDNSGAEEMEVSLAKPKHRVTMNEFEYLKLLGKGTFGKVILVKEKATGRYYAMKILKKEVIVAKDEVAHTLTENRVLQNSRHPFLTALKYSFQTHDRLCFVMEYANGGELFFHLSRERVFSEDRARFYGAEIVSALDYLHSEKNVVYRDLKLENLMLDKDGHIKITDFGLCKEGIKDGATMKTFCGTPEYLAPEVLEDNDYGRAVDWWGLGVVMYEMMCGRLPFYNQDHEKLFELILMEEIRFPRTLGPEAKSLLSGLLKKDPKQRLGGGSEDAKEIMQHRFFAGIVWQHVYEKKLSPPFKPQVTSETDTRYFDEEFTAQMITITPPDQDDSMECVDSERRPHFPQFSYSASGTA
Method: Human pulmonary artery endothelial cells (HPAECs) were cultured using an endothelium media specific for HPAEC with 10% FBS. Cells were used from passages 3-6. All experiments were performed on 80-90% confluent cells. Akt nitration was induced by treatment with 3-Morpholinosyndnomine (SIN-1) (1 mM) for 1 hour. NP pretreatment groups were treated with 1 μM NP for 30 min, and then cells were washed in PBS and treated with SIN-1 for 1 hour. All treatments were accompanied by including controls with the corresponding vehicle. After treatment, the cells were washed in PBS and lysed in a RIPA buffer containing protease and phosphatase inhibitor cocktail.
For an analysis of the total lung protein, lung tissues were lysed as previously described. Briefly, 20-40 mg of lung tissue (human/rat) was lysed in Permeabilization Buffer mixed with protease and phosphatase inhibitor cocktails using a Fisher Homogenizer 850. […] The protein concentration was measured using the BCA protein assay kit (Thermo Scientific, Rockford, Ill.). […] Since the quantification of the Akt nitration is not fully established by mass spectrometry, a common method was used by newly developed antibodies for the quantification of specific Y350 nitration of Akt. The reactive bands were visualized by chemiluminescent ChemiDoc™ MP Imaging System (Bio-Rad Laboratories Inc., Hercules, Calif.) and analyzed using Image Lab™ software. […]

[2] = target: T2, Akt (Rattus norvegicus, UniProt P47196); assay: Western blot of Akt nitration, phosphorylation and total nitration in lung lysate, sugen/hypoxia PAH model; format: in vivo; conditions: sugen/hypoxia rats two-weeks (SU2), NP 0.1 mg/kg/day i.v.
T2 construct: nitro Akt, phospho Akt and total Akt expression in the lung lysate; from tissue; host or cells: rat lung (Sprague Dawley, sugen/hypoxia model)
T2 sequence (P47196 whole entry): as the sequence (P31749 whole entry) above, with S2N, D46E, A50S, K112R, E117T, S137A, K389T, G410N, H415D counted along it
Method: (§1) For an analysis of the total lung protein, lung tissues were lysed as previously described. Briefly, 20-40 mg of lung tissue (human/rat) was lysed in Permeabilization Buffer mixed with protease and phosphatase inhibitor cocktails using a Fisher Homogenizer 850. The homogenate was centrifuged at 10,000 g for 10 min, and the supernatant was carefully collected. Cell membrane and cytosolic fractions were isolated using FractionPREP™ cell fraction kit (Biovision, Milpitas, Calif.) according to manufacturer's instruction. The protein concentration was measured using the BCA protein assay kit (Thermo Scientific, Rockford, Ill.). Samples were incubated with 6×Laemmli sample buffer (Boston Bioproducts Inc., Ashland, Mass.), for 5 min at 95° C., loaded on the 4-20% SDS-PAGE Mini-PROTEAN TGX Stain-Free™ gels (Bio-Rad Laboratories Inc., Hercules, Calif.) and separated by electrophoresis. Protein bands were transferred using Trans-Blot Turbo transferring system (Bio-Rad Laboratories Inc.) and then blocked with 5% bovine serum albumin in Tris-buffered saline. Membranes were probed using antibodies against Glut 4 (07-1404) from Millipore, pyruvate carboxylase (PC) (Ab229267) & peroxisome proliferator-activated receptor gamma coactivator 1-alpha (PGC-1α) (Ab191838) from Abcam, pyruvate dehydrogenase (PDH) (45-6600) from Invitrogen, phospho Akt (Ser 473) (4060S), Akt (9272S), hexokinase 1 (HK1) (C35C4), glyceraldehyde-3 phosphate dehydrogenase (GAPDH) (2118S), lactate dehydrogenase-A (LDHA) (2012S), phospho glycogen synthase kinase (GSK) 3 β (Ser9) (9336S), GSK3 β(9315S) and glucose 6-phosphate dehydrogenase (G6PD) (8866S) from Cell Signaling Technology. Mouse monoclonal anti-nitrotyrosine antibodies were obtained from Calbiochem, La Jolla, Calif. (487923). Akt Y350 NO2 antibody obtained as a custom-made antibody against Akt1-nitro (341-353) and the sequence was CGRLPF-nitroY-NQDHEK (SEQ ID NO: 2). Two peptides were developed with and without Y350 nitration. The antibody developed against nitrated peptide cleaned using non-nitrated peptide (Akt1 (341-353): […], SEQ ID NO: 3) to remove nonspecific antibodies. […] Since the quantification of the Akt nitration is not fully established by mass spectrometry, a common method was used by newly developed antibodies for the quantification of specific Y350 nitration of Akt. The reactive bands were visualized by chemiluminescent ChemiDoc™ MP Imaging System (Bio-Rad Laboratories Inc., Hercules, Calif.) and analyzed using Image Lab™ software. […] This normalization is equal to housekeeping genes normalization and rigorously evaluated by Bio-Rad company (http://www.bio-rad.com/en-us/applications-technologies/stain-free-imaging-technology?ID=NZ0G1815) and others in comparison with beta-actin normalization.

[3] = tested on: Akt; assay: as above; format: in vivo, rat; conditions: SU2 rats, NP 0.1 mg/kg/day i.v. two-weeks
Method: as §1

[4] = tested on: sugen/hypoxia PAH model; assay: Hemodynamic measurement (RVSP, Fulton index), sugen/hypoxia PAH model; format: in vivo, rat; conditions: SU2 rats, NP 0.1 mg/kg/day i.v. two-weeks
Method: Animals were anesthetized with inactin 100 mg/kg intraperitoneally (i.p.) (T133, Sigma-Aldrich). A customized pressure transducer catheter (SPR-513, Millar Instruments, Houston, Tex.) was inserted into RV via the right jugular vein and advanced into the right ventricle to monitor right ventricular systolic pressure (RVSP) as described previously. Briefly, the pressure transducer catheter was connected to a Millar Transducer Control Unit TC-510 and PL3504 PowerLab 4/35 data acquisition system (AD Instruments, Colorado Springs, Colo.) to monitor RV pressure for 30-min. After this a tracheal catheter was connected to a ventilator system (Harvard Rodent Ventilator-683; Harvard Apparatus, South Natick, Mass.), the thorax was opened, and the lungs flushed with 0.9% sodium chloride through the right ventricle (RV). Heart and lungs were collected from animals; the RV free wall was separated from the left ventricle (LV), and the septum (5). Fulton index (RV/LV+S ratio) as a parameter of RV hypertrophy was calculated. The total wet lung weight was measured and normalized by the body weight of the animal. The left lung was fixed in formalin and embedded in paraffin for histological examination. The other portion of the lung was stored at −80° C. for further biochemical studies.

[5] = tested on: sugen/hypoxia PAH model; assay: Histological analysis of pulmonary arteries (EVG, Ki-67), sugen/hypoxia PAH model; format: in vivo, rat; conditions: SU2 rats, NP 0.1 mg/kg/day i.v. two-weeks
Description: For the morphometric assessment of pulmonary vessels 5-μm tissue sections were dewaxed and stained with elastic fibers—Verhoeffs van gieson (EVG) by HistoWiz Inc. (Brooklyn, N.Y.) using standard operating procedures and a fully automated workflow system. Ten transversely sectioned pulmonary arteries (diameter<300 μm) within each category per each animal (N=6 per group) were randomly selected from the whole-slide 40X digitized image Aperio AT2 scanner (Leica Biosystems, Ill.). Immunohistochemistry was performed using standard protocols. The sections were deparaffinized and incubated with primary antibodies against Akt Y350 NO2 (1:100), and Ki67 (1:800) (ab15580 Abcam); Dab Rabbit H1 (pH 6) for 20 min. The morphometric analysis was done by an investigator by a blinded grouping fashion. The wall thickness of the pulmonary artery (PA) was measured using the publicly available software Fiji is just ImageJ (http://fiji.sc/Fiji; in the public domain).

[6] = tested on: HPASMCs; assay: Seahorse glycostress assay (ECAR); format: cell-based, human; conditions: SIN-1 treatment
Method: (§2) For the glycostress Seahorse assay, human pulmonary artery smooth muscle cells (HPASMCs) were seeded in a 24 well Seahorse cell culture microplate at 50000/well and kept overnight to form a monolayer. On the day of experiment, the media was aspirated and cells were incubated at 37° C. in a non-CO2 incubator for 1 hour with 0.5 mL XF base medium (cat #102353-100, Agilent, Santa Clara, Calif.) supplemented with 2 mM glutamine. Glucose (56 μL, 100 mM), Oligomycin (62 μL, 100 μM) and 2-deoxyglucose (69 μL, 500 mM) was added to the flux pack wells (cat #102342-100, Agilent, Santa Clara, Calif.). ECAR (extracellular acidification rate) was then measured using Seahorse Bioscience XFe24 extracellular flux analyzer (Agilent, Santa Clara, Calif.) according to the manufacturer's protocol. For the mitostress assay, cells were prepared like the glycostress assay with the exception that the XF base incubation media was supplemented with pyruvate (1 mM), glutamine (2 mM) and glucose (10 mM). Oligomycin (56 μL, 10 μM), FCCP (62 μL, 10 μM) and Rotenone+Antimycin-A (69 μL, 5 μM) were added to the flux pack wells. OCR (oxygen consumption rate) was then identified according to the manufacturer's protocol. Data was normalized to cell number as determined by flow cytometry. All the chemicals used for these experiments, unless specified, were procured from Sigma-Aldrich.

[7] = tested on: HPASMCs; assay: Seahorse mitostress assay (OCR); format: cell-based, human; conditions: SIN-1 treatment
Method: as §2

[8] = tested on: sugen/hypoxia PAH model; assay: Western blot of metabolic proteins in lung tissue, sugen/hypoxia PAH model; format: in vivo, rat; conditions: SU2 rats
Method: For an analysis of the total lung protein, lung tissues were lysed as previously described. Briefly, 20-40 mg of lung tissue (human/rat) was lysed in Permeabilization Buffer mixed with protease and phosphatase inhibitor cocktails using a Fisher Homogenizer 850. The homogenate was centrifuged at 10,000 g for 10 min, and the supernatant was carefully collected. Cell membrane and cytosolic fractions were isolated using FractionPREP™ cell fraction kit (Biovision, Milpitas, Calif.) according to manufacturer's instruction. The protein concentration was measured using the BCA protein assay kit (Thermo Scientific, Rockford, Ill.). Samples were incubated with 6×Laemmli sample buffer (Boston Bioproducts Inc., Ashland, Mass.), for 5 min at 95° C., loaded on the 4-20% SDS-PAGE Mini-PROTEAN TGX Stain-Free™ gels (Bio-Rad Laboratories Inc., Hercules, Calif.) and separated by electrophoresis. Protein bands were transferred using Trans-Blot Turbo transferring system (Bio-Rad Laboratories Inc.) and then blocked with 5% bovine serum albumin in Tris-buffered saline. Membranes were probed using antibodies against Glut 4 (07-1404) from Millipore, pyruvate carboxylase (PC) (Ab229267) & peroxisome proliferator-activated receptor gamma coactivator 1-alpha (PGC-1α) (Ab191838) from Abcam, pyruvate dehydrogenase (PDH) (45-6600) from Invitrogen, phospho Akt (Ser 473) (4060S), Akt (9272S), hexokinase 1 (HK1) (C35C4), glyceraldehyde-3 phosphate dehydrogenase (GAPDH) (2118S), lactate dehydrogenase-A (LDHA) (2012S), phospho glycogen synthase kinase (GSK) 3 β (Ser9) (9336S), GSK3 β(9315S) and glucose 6-phosphate dehydrogenase (G6PD) (8866S) from Cell Signaling Technology. Mouse monoclonal anti-nitrotyrosine antibodies were obtained from Calbiochem, La Jolla, Calif. (487923). Akt Y350 NO2 antibody obtained as a custom-made antibody against Akt1-nitro (341-353) and the sequence was CGRLPF-nitroY-NQDHEK (SEQ ID NO: 2). Two peptides were developed with and without Y350 nitration. The antibody developed against nitrated peptide cleaned using non-nitrated peptide (Akt1 (341-353): […], SEQ ID NO: 3) to remove nonspecific antibodies. Affinity purification was done using large reusable affinity purification columns against the unmodified and nitrated peptides. […] Since the quantification of the Akt nitration is not fully established by mass spectrometry, a common method was used by newly developed antibodies for the quantification of specific Y350 nitration of Akt. The reactive bands were visualized by chemiluminescent ChemiDoc™ MP Imaging System (Bio-Rad Laboratories Inc., Hercules, Calif.) and analyzed using Image Lab™ software. The protein loading was normalized per total sample protein as fold control using stain free gels as previously described. This normalization is equal to housekeeping genes normalization and rigorously evaluated by Bio-Rad company (http://www.bio-rad.com/en-us/applications-technologies/stain-free-imaging-technology?ID=NZ0G1815) and others in comparison with beta-actin normalization.

[9] = tested on: PDH; assay: Pyruvate dehydrogenase assay in lung tissue; format: in vivo, rat; conditions: SU2 rats, NP treatment
Method: Lung tissue was lysed using RIPA buffer and the lysate was used for the PDH activity. PDH activity was measured with PDH Activity Assay Kit (MAK183, Sigma-Aldrich) per the manufacturer protocol.

[10] = tested on: sugen/hypoxia PAH model; assay: Metabolic intermediates analysis of lung lysate (PCA); format: in vivo, rat; conditions: SU2+NP versus SU2
Method: Data were acquired using the West Coast Metabolomics Center at UC Davis. Briefly, Restek corporation Rtx-5Sil MS column was used with helium mobile phase at temperature interval (50-330° C.) and flow-rate: 1 mL min-1. Injection volume was 0.5 μL at 50° C. ramped to 250° C. by 12° C. s-1. Oven temperature started at 50° C. for 1 min, then ramped at 20° C. min-1 to 330° C., and held constant for 5 min. Mass spectrometry analysis was done on a Leco Pegasus IV mass spectrometer with unit mass resolution at 17 spectra s-1 from 80-500 Da at −70 eV ionization energy and 1800 V detector voltage with a 230° C. transfer line and a 250° C. ion source. Raw data files were preprocessed directly after data acquisition and stored as ChromaTOF-specific*.peg files, as generic*.txt result files and additionally as generic ANDI MS*.cdf files. ChromaTOF vs. 2.32 was used for data preprocessing without smoothing, 3s peak width, baseline subtraction just above the noise level, and automatic mass spectral deconvolution and peak detection at signal/noise levels of 5:1 throughout the chromatogram. Apex masses were reported for use in the BinBase algorithm. Result*.txt files were exported to a data server with absolute spectra intensities and further processed by a filtering algorithm implemented in the metabolomics BinBase database.

[11] = tested on: LDH; conditions: SU2 rats, NP treatment, lung tissue
Method: Female Sprague Dawley rats (200-250 g) obtained from Charles River (Wilmington, Mass., USA) were used in this study. […] Generally, PAH was induced by a single injection of SU5416 (50 mg/kg) subcutaneously, followed by 3 weeks of hypoxia (10% 02) and 2 weeks of normoxia. This study included five animal groups: control group; SU1, rats were analyzed after 1 week of SU5416 and hypoxia treatment; SU2, rats were analyzed after 2 weeks of SU5416 and hypoxia treatment; SUS, rats were analyzed after 5 weeks of SU5416 treatment (3 weeks of hypoxia with a following 2 weeks of normoxia); and SU2+NP peptide treatment 0.1 mg/kg/day intravenous (i.v.) injection started with SU5416 treatment for two-weeks.
LDH activity in lung tissue was assessed by Lactate Dehydrogenase Activity Colorimetric Assay Kit (K726, BioVision Inc. Calif., USA) according to manufacturer's instruction. All values were normalized with respect to protein concentrations as determined by the Pierce™ BCA Protein Assay Kit (Thermo Scientific, Rockford, Ill.).

Substance: NP: peptide Ser-Arg-IIe-Arg-Ser (SEQ ID NO: 1) with nitroxide (3-Carboxy-2,2,5,5-tetramethyl pyrroline-1-yloxy) covalently attached to the free N-terminal amine
- reduction of Akt nitration (Y350) [1]: 55%
- nitroAkt modification in the lung tissue [2]: significantly reduced; also recorded: remarkable reduction
- Phosphorylation of Akt at Ser-473 ([3]; lung lysate): does not affect
- total Akt expression ([3]; lung lysate): did not change
- total nitration in lungs ([3]; selectivity toward Akt nitration): did not significantly alter
- Fulton index (RV/LV+S), RV hypertrophy [4]: markedly decreased; also recorded: reversed
- right ventricular systolic pressure (RVSP) ([4]; SU2 without NP 71.9±3.6, p<0.001): 36.1±2.6
- EVG staining: perivascular fibrosis, vasoconstriction and proliferation in pulmonary arteries [5]: significantly attenuated
- vascular remodeling and cellular proliferation (Ki-67 staining) [5]: effectively prevented
- Glycolytic capacity [6]: attenuated
- glycolysis (glycolytic rate, ECAR) [6]: attenuated this back to control level
- basal respiration rate [7]: without affecting
- mitochondrial oxidative phosphorylation rate (OCR) [7]: upregulated the oxidative phosphorylation rate to control level
- pyruvate carboxylase (PC) expression ([8]; NP 0.1 mg/kg/day i.v. two-weeks): decreased
- G6PD expression ([8]; NP treatment): upregulated significantly
- GSK3β expression ([8]; NP treatment): reversed
- Glut4 translocation to membrane (membrane/cytosol ratio) ([8]; NP treatment): attenuated
- LDHA expression ([8]; NP treatment): attenuating
- PDH expression ([8]; NP treatment): significantly increased
- PGC1α expression ([8]; NP treatment): significantly reduced
- PDH activity [9]: increased
- metabolites significantly restored by treatment [10]: 30 metabolites
- LDHA activity [11]: attenuating
